Biological target: Rv2624c (Mycobacterium tuberculosis, UniProt P9WFD5)
Sequence (P9WFD5 whole entry): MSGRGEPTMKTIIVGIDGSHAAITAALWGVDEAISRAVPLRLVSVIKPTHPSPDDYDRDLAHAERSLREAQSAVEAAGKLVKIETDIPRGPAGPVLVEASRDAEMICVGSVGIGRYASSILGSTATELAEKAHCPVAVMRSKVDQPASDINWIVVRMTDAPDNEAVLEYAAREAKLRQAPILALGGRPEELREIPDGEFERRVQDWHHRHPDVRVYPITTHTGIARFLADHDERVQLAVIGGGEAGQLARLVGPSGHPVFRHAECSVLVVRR

Row | Structure (SMILES) | HPLC of nucleotides extracted by boiling purified protein
1 | Nc1ncnc2c1ncn2[C@@H]1O[C@H](COP(=O)(O)OP(=O)(O)O)[C@@H](O)[C@H]1O [ADP] | purified Rv2624c proteins from E. coli bound tightly to ATP and ADP after extensive purification steps
2 | Nc1ncnc2c1ncn2[C@@H]1O[C@H](COP(=O)(O)OP(=O)(O)OP(=O)(O)O)[C@@H](O)[C@H]1O [ATP] | purified Rv2624c proteins from E. coli bound tightly to ATP and ADP after extensive purification steps
